Patent publication US10085958B2, “Bromfenac bioavailability” (BAUSCH & LOMB PHARMA HOLDINGS CORP., priority 2011, dated 2018)
Where “and” joins values, the source holds several entries; their conditions need not be identical. Equal values may be shown once. Read-outs that look alike come from different tables or passages of the source.

Experiments:
[1] = Twenty-four hour ocular pharmacokinetics of ^14C-labeled bromfenac following topical instillation; assay type: in vivo, New Zealand White rabbit
Method: Twenty-four hour ocular pharmacokinetics of a formulation of ^14C-labeled bromfenac following topical instillation in New Zealand White rabbit eyes was evaluated. ^14C-labeled bromfenac was analyzed to verify the radioactive purity prior to use. Dosing solutions were prepared and analyzed after dosing to confirm the radiochemical purity of the dosing solution. The radioactive concentration of the dosing solutions was calculated by liquid scintillation counting (LSC). Treatment parameters are summarized below:
On Day 1, 50 μL of the dosing solution was topically instilled into both eyes of each animal. Animals were weighed at randomization and prior to dosing on Day 1. Animals were euthanized by an intravenous injection of a commercial euthanasia solution at 1 hour±5 minutes, 2 hours±15 minutes, 4 hours±15 minutes, 8 hours±15 minutes, 12 hours±15 minutes, or 24 hours±15 minutes following dosing. After euthanasia, each eye was rinsed with normal saline. Aqueous humor was collected from both eyes and the weight was recorded. The globes were enucleated and frozen in liquid nitrogen. The globes were stored at ≤−70° C. prior to dissection. The iris/ciliary body, lens, vitreous, retina, choroid, sclera, conjunctiva, and cornea were collected from each eye, weighed, and stored at ≤−15° C. prior to analysis. Aqueous humor samples were stored at ≤−15° C. until analyzed.
All radioactivity measurements were performed using a Beckman Liquid Scintillation Spectrometer. The iris/ciliary body, lens, retina, choroid, sclera, conjunctiva, and cornea from each eye were weighed into combustion cones and combusted. Duplicate aliquots of each aqueous humor sample and each vitreous humor sample were transferred to LSC vials using Insta-Gel as the scintillation fluid and the amount of radioactivity was determined.
The dosing solution was prepared by weighing 2.41 mg of ^14C-labeled bromfenac sodium and dissolving into 3 mL diluent to achieve a non-radioactive concentration of 0.7 mg/mL (0.07% w/v) bromfenac free acid, a radioactive concentration of 129.7 μCi/mL, and a pH of 7.8.
On Day 1, 50 μL of the dosing solution was topically instilled into both eyes of each animal. The dosing solution was instilled into the conjunctival sac using a calibrated pipette, and the eyelid was held closed for 5-10 seconds following the dose. Any dosing solution found at the margin of the eyelid after dosing was recovered with a Lasik spear. The time of each dose administration was recorded.
Animals were euthanized by an intravenous injection of a commercial euthanasia solution at 1 hour±5 minutes, 2 hours±15 minutes, 4 hours±15 minutes, 8 hours±15 minutes, 12 hours±15 minutes, or 24 hours±15 minutes following dosing.
After euthanasia, each eye was rinsed with normal saline. Aqueous humor was collected from both eyes and the weight was recorded. The globes were enucleated and frozen in liquid nitrogen. The globes were stored at ≤−70° C. prior to dissection. The iris/ciliary body, lens, vitreous, retina, choroid, sclera, conjunctiva, and cornea were collected from each eye, weighed, and stored at ≤−15° C. prior to analysis. The start time of necropsy was recorded. Aqueous humor samples were stored at ≤−15° C. until analyzed.
The iris/ciliary body, lens, retina, choroid, sclera, conjunctiva, and cornea from each eye were weighed into combustion cones and combusted with the exception of the left eye from Animal No. 731. The retina, choroid, and cornea from this eye were lost during processing and could not be recovered. No radioactivity data is available for these tissues.
Combusted samples were trapped in […] (RJ Harvey) present in LSC vials and the amount of radioactivity determined by LSC. Duplicate aliquots of each aqueous humor sample (approximately 25 μL) were transferred to LSC vials and the amount of radioactivity was determined by LSC using Insta-Gel as the scintillation fluid. […]

[2] = assay type: in vivo; conditions: for Mortality/Morbidity: animals found dead or euthanized prior to scheduled euthanasia/number in group
[3] = Group A, 1 hr. post-dose, 0.07% pH 7.8, 50 μL per eye topical
[4] = Group B, 2 hr. post-dose, 0.07% pH 7.8, 50 μL per eye topical
[5] = Group C, 4 hr. post-dose, 0.07% pH 7.8, 50 μL per eye topical
[6] = Group D, 8 hr. post-dose, 0.07% pH 7.8, 50 μL per eye topical

Nc1c(CC(=O)O)cccc1C(=O)c1ccc(Br)cc1 [^14C-labeled Bromfenac]
Radioactivity detected by LSC in the lens and the vitreous humor ([1]; 24 hour study period): very low and close to background values
Radioactive residues, Total of eye tissues, Mean [1, 3]: 1.187 Percent Dose
Radioactive residues, Total of eye tissues, single eyes OD/OS [1, 3]: 0.954 Percent Dose and 1.172 Percent Dose and 1.011 Percent Dose and 1.423 Percent Dose and 1.185 Percent Dose and 1.374 Percent Dose
Radioactive residues, Total of eye tissues, Mean [1, 4]: 0.867 Percent Dose
Radioactive residues, Total of eye tissues, single eyes OD/OS [1, 4]: 0.923 Percent Dose and 0.762 Percent Dose and 0.782 Percent Dose and 1.246 Percent Dose and 0.725 Percent Dose and 0.761 Percent Dose
Radioactive residues in Conjunctiva, Mean [1, 5]: 0.142 Percent Dose
Radioactive residues, Total of eye tissues, Mean [1, 5]: 0.550 Percent Dose
Radioactive residues in Cornea, Mean [1, 6]: 0.471 ppm (μg-eq/g)
Radioactive residues, Total of eye tissues, Mean [1, 6]: 0.228 Percent Dose
Radioactive residues, Total of eye tissues, Mean ([1]; Group E, 12 hr. post-dose, 0.07% pH 7.8, 50 μL per eye topical): 0.107 Percent Dose
Radioactive residues, Total of eye tissues, Mean ([1]; Group F, 24 hr. post-dose, 0.07% pH 7.8, 50 μL per eye topical): 0.034 Percent Dose
Tissues with the highest concentrations of drug-derived radioactivity ([1]; mean ppm (μg/g), 24 hour study period): cornea, conjunctiva, and sclera
Mortality/Morbidity ([2]; Group A, necropsy 1 hour post-dose): 0/3
Mortality/Morbidity ([2]; Group B, necropsy 2 hours post-dose): 0/3
Mortality/Morbidity ([2]; Group C, necropsy 4 hours post-dose): 0/3
Mortality/Morbidity ([2]; Group D, necropsy 8 hours post-dose): 0/3
Mortality/Morbidity ([2]; Group E, necropsy 12 hours post-dose): 0/3
Mortality/Morbidity ([2]; Group F, necropsy 24 hours post-dose): 0/3
Mortality, whole study ([2]; all groups, up to 24 hours after 50 μL 0.07% per eye): no mortality
